Assays:
Type in all cases: functional
KM12 = test: Cytotoxicity against Homo sapiens (human) KM12 cells after 48 hr by sulforhodamine B assay; details: KM12, 48 h
HT-29 = test: Cytotoxicity against Homo sapiens (human) HT-29 cells after 48 hr by sulforhodamine B assay; details: HT-29, 48 h
HCT-15 = test: Cytotoxicity against Homo sapiens (human) HCT15 cells after 48 hr by sulforhodamine B assay; details: HCT-15, 48 h
COLO 205 = test: Cytotoxicity against Homo sapiens (human) COLO205 cells after 48 hr by sulforhodamine B assay; details: COLO 205, 48 h
NCI-H460 = test: Cytotoxicity against Homo sapiens (human) NCI-H460 cells after 48 hr by sulforhodamine B assay; details: NCI-H460, 48 h
NCI-H226 = test: Cytotoxicity against Homo sapiens (human) NCI-H226 cells after 48 hr by sulforhodamine B assay; details: NCI-H226, 48 h
NCI-H23 = test: Cytotoxicity against Homo sapiens (human) NCI-H23 cells after 48 hr by sulforhodamine B assay; details: NCI-H23, 48 h
HOP-62 = test: Cytotoxicity against Homo sapiens (human) HOP62 cells after 48 hr by sulforhodamine B assay; details: HOP-62, 48 h
EKVX = test: Cytotoxicity against Homo sapiens (human) EKVX cells after 48 hr by sulforhodamine B assay
SR = test: Cytotoxicity against Homo sapiens (human) SR cells after 48 hr by sulforhodamine B assay
[1] = Cytotoxicity against Homo sapiens (human) […] cells after 48 hr by sulforhodamine B assay
HL-60(TB) = test: Cytotoxicity against Homo sapiens (human) HL-60(TB) cells after 48 hr by sulforhodamine B assay; details: HL-60, 48 h
T47D = test: Cytotoxicity against Homo sapiens (human) T47D cells after 48 hr by sulforhodamine B assay
Hs-578T = test: Cytotoxicity against Homo sapiens (human) Hs 578T cells after 48 hr by sulforhodamine B assay
DU-145 = test: Cytotoxicity against Homo sapiens (human) DU145 cells after 48 hr by sulforhodamine B assay; details: DU-145, 48 h
PC-3 = test: Cytotoxicity against Homo sapiens (human) PC3 cells after 48 hr by sulforhodamine B assay; details: PC-3, 48 h
ACHN = test: Cytotoxicity against Homo sapiens (human) ACHN cells after 48 hr by sulforhodamine B assay
786-0 = test: Cytotoxicity against Homo sapiens (human) 786-0 cells after 48 hr by sulforhodamine B assay; details: 786-0, 48 h
[2] = Cytotoxicity against Homo sapiens (human) NCI-ADR-RES cells after 48 hr by sulforhodamine B assay
OVCAR-8 = test: Cytotoxicity against Homo sapiens (human) OVCAR8 cells after 48 hr by sulforhodamine B assay; details: OVCAR-8, 48 h
UACC-257 = test: Cytotoxicity against Homo sapiens (human) UACC257 cells after 48 hr by sulforhodamine B assay; details: UACC-257, 48 h
SK-MEL-28 = test: Cytotoxicity against Homo sapiens (human) SK-MEL-28 cells after 48 hr by sulforhodamine B assay; details: SK-MEL-28, 48 h
M14 = test: Cytotoxicity against Homo sapiens (human) M14 cells after 48 hr by sulforhodamine B assay; details: M14, 48 h
LOX IMVI = test: Cytotoxicity against Homo sapiens (human) LOXIMVI cells after 48 hr by sulforhodamine B assay
Malme-3M = test: Cytotoxicity against Homo sapiens (human) MALME-3M cells after 48 hr by sulforhodamine B assay
U-251 = test: Cytotoxicity against Homo sapiens (human) U251 cells after 48 hr by sulforhodamine B assay; details: U-251, 48 h
SNB-75 = test: Cytotoxicity against Homo sapiens (human) SNB75 cells after 48 hr by sulforhodamine B assay; details: SNB-75, 48 h
SNB-19 = test: Cytotoxicity against Homo sapiens (human) SNB19 cells after 48 hr by sulforhodamine B assay; details: SNB-19, 48 h
SF-295 = test: Cytotoxicity against Homo sapiens (human) SF295 cells after 48 hr by sulforhodamine B assay; details: SF-295, 48 h
HCC 2998 = test: Anticancer activity in Homo sapiens (human) HCC2998 cells assessed as cell growth at 10^-5 M after 48 hr by SRB assay; details: HCC 2998, 48 h, read-out: Activity

**Q.** Which GI50 (KM12) does the source give for O=C(c1ccc(O)cc1)n1nc(-c2c(Cl)cccc2Cl)sc1=S here?
**A.** 3.8 µM

**Q.** What about the LC50 (KM12) of the same compound?
**A.** 41.7 µM

**Q.** What about the TGI (KM12; read-out: pTGI (converted)) of the same compound?
**A.** 14.8 µM

**Q.** And the GI50 (HT-29)?
**A.** 8.32 µM

**Q.** What about the LC50 (HT-29) of the same compound?
**A.** 53.7 µM

**Q.** And the TGI (HT-29; read-out: pTGI (converted))?
**A.** 22.9 µM

**Q.** What about the GI50 (HCT-15) of the same compound?
**A.** 6.46 µM

**Q.** And the LC50 (concentration killing 50% of cells) (HCT-15)?
**A.** > 100 µM

**Q.** And the TGI (HCT-15; read-out: pTGI (converted))?
**A.** 32.4 µM

**Q.** And the GI50 (COLO 205)?
**A.** 13.5 µM

**Q.** And the LC50 (COLO 205)?
**A.** 64.6 µM

**Q.** And the TGI (COLO 205; read-out: pTGI (converted))?
**A.** 29.5 µM

**Q.** What about the GI50 (NCI-H460) of the same compound?
**A.** 9.33 µM

**Q.** What about the LC50 (NCI-H460) of the same compound?
**A.** 75.9 µM

**Q.** And the TGI (NCI-H460; read-out: pTGI (converted))?
**A.** 26.3 µM

**Q.** And the GI50 (NCI-H226)?
**A.** 12.9 µM

**Q.** And the LC50 (NCI-H226)?
**A.** > 100 µM

**Q.** And the TGI (NCI-H226; read-out: pTGI (converted))?
**A.** 57.5 µM

**Q.** And the GI50 (NCI-H23)?
**A.** 12.6 µM

**Q.** And the LC50 (NCI-H23)?
**A.** > 100 µM

**Q.** What about the TGI (NCI-H23; read-out: pTGI (converted)) of the same compound?
**A.** 53.7 µM

**Q.** And the GI50 (HOP-62)?
**A.** 18.6 µM

**Q.** And the LC50 (HOP-62)?
**A.** > 100 µM

**Q.** And the TGI (HOP-62; read-out: pTGI (converted))?
**A.** 43.7 µM

**Q.** And the GI50 (EKVX)?
**A.** 5.01 µM

**Q.** What about the LC50 (EKVX) of the same compound?
**A.** > 100 µM

**Q.** What about the TGI (EKVX; read-out: pTGI (converted)) of the same compound?
**A.** 69.2 µM

**Q.** What about the GI50 (SR) of the same compound?
**A.** 1.51 µM

**Q.** What about the LC50 (SR) of the same compound?
**A.** > 100 µM

**Q.** What about the TGI (SR; read-out: pTGI) of the same compound?
**A.** > 100 µM

**Q.** What about the GI50 [1] of the same compound?
**A.** 7.59 µM

**Q.** What about the LC50 [1] of the same compound?
**A.** > 100 µM

**Q.** What about the TGI ([1]; read-out: pTGI (converted)) of the same compound?
**A.** 60.3 µM

**Q.** What about the GI50 (HL-60(TB)) of the same compound?
**A.** 2 µM

**Q.** What about the CC50 (HL-60(TB); read-out: pLC50 (the source's name) (converted)) of the same compound?
**A.** > 100 µM

**Q.** And the TGI (HL-60(TB); read-out: pTGI (converted))?
**A.** 30.9 µM

**Q.** And the GI50 (T47D)?
**A.** 3.89 µM

**Q.** What about the LC50 (T47D) of the same compound?
**A.** > 100 µM

**Q.** What about the TGI (T47D; read-out: pTGI (converted)) of the same compound?
**A.** 32.4 µM

**Q.** What about the GI50 (Hs-578T) of the same compound?
**A.** 29.5 µM

**Q.** And the LC50 (Hs-578T)?
**A.** > 100 µM

**Q.** And the TGI (Hs-578T; read-out: pTGI (converted))?
**A.** 89.1 µM

**Q.** What about the GI50 (DU-145) of the same compound?
**A.** 5.89 µM

**Q.** And the LC50 (DU-145)?
**A.** 79.4 µM

**Q.** What about the TGI (DU-145; read-out: pTGI (converted)) of the same compound?
**A.** 29.5 µM

**Q.** And the GI50 (PC-3)?
**A.** 3.31 µM

**Q.** And the LC50 (PC-3)?
**A.** > 100 µM

**Q.** What about the TGI (PC-3; read-out: pTGI (converted)) of the same compound?
**A.** 30.2 µM

**Q.** And the GI50 (ACHN)?
**A.** 7.76 µM

**Q.** And the LC50 (ACHN)?
**A.** > 100 µM

**Q.** And the TGI (ACHN; read-out: pTGI (converted))?
**A.** 41.7 µM

**Q.** What about the GI50 (786-0) of the same compound?
**A.** 2.34 µM

**Q.** And the LC50 (786-0)?
**A.** 53.7 µM

**Q.** And the TGI (786-0; read-out: pTGI (converted))?
**A.** 17 µM

**Q.** What about the GI50 [2] of the same compound?
**A.** 10 µM

**Q.** What about the LC50 [2] of the same compound?
**A.** > 100 µM

**Q.** And the TGI ([2]; read-out: pTGI (converted))?
**A.** 49 µM

**Q.** And the GI50 (OVCAR-8)?
**A.** 22.9 µM

**Q.** What about the LC50 (OVCAR-8) of the same compound?
**A.** > 100 µM

**Q.** What about the TGI (OVCAR-8; read-out: pTGI (converted)) of the same compound?
**A.** 72.4 µM

**Q.** And the GI50 (UACC-257)?
**A.** 14.1 µM

**Q.** What about the LC50 (UACC-257) of the same compound?
**A.** > 100 µM

**Q.** And the TGI (UACC-257; read-out: pTGI (converted))?
**A.** 41.7 µM

**Q.** What about the GI50 (SK-MEL-28) of the same compound?
**A.** 16.2 µM

**Q.** And the LC50 (concentration killing 50% of cells) (SK-MEL-28)?
**A.** 87.1 µM

**Q.** And the TGI (SK-MEL-28; read-out: pTGI (converted))?
**A.** 37.2 µM

**Q.** And the GI50 (M14)?
**A.** 8.91 µM

**Q.** What about the LC50 (M14) of the same compound?
**A.** 67.6 µM

**Q.** And the TGI (M14; read-out: pTGI (converted))?
**A.** 25.7 µM

**Q.** And the GI50 (LOX IMVI)?
**A.** 10 µM

**Q.** What about the LC50 (LOX IMVI) of the same compound?
**A.** 75.9 µM

**Q.** What about the TGI (LOX IMVI; read-out: pTGI (converted)) of the same compound?
**A.** 27.5 µM

**Q.** And the GI50 (Malme-3M)?
**A.** 29.5 µM

**Q.** What about the LC50 (Malme-3M) of the same compound?
**A.** > 100 µM

**Q.** What about the TGI (Malme-3M; read-out: pTGI (converted)) of the same compound?
**A.** 49 µM

**Q.** What about the GI50 (U-251) of the same compound?
**A.** 11.5 µM

**Q.** And the LC50 (U-251)?
**A.** 91.2 µM

**Q.** What about the TGI (U-251; read-out: pTGI (converted)) of the same compound?
**A.** 32.4 µM

**Q.** What about the GI50 (SNB-75) of the same compound?
**A.** 16.6 µM

**Q.** And the LC50 (SNB-75)?
**A.** > 100 µM

**Q.** And the TGI (SNB-75; read-out: pTGI (converted))?
**A.** 50.1 µM

**Q.** What about the GI50 (SNB-19) of the same compound?
**A.** 15.1 µM

**Q.** What about the LC50 (SNB-19) of the same compound?
**A.** > 100 µM

**Q.** What about the TGI (SNB-19; read-out: pTGI (converted)) of the same compound?
**A.** 67.6 µM

**Q.** And the GI50 (SF-295)?
**A.** 5.13 µM

**Q.** And the LC50 (SF-295)?
**A.** > 100 µM

**Q.** What about the TGI (SF-295; read-out: pTGI (converted)) of the same compound?
**A.** 29.5 µM

**Q.** What about the growth at 10 µM (HCC 2998) of the same compound?
**A.** 17.1%

From ChEMBL document CHEMBL3046521, “Synthesis and antitumor activity of (4-hydroxyphenyl)[5-substituted alkyl/aryl)-2-thioxo-1,3,4-thiadiazol-3-yl]methanone and [(3,4-disubstituted)-1,3-thiazol-2ylidene]-4-hydroxybenzohydrazide” (2011)
